According to US10357483B2, “Methods comprising dosing combinations for reducing undesired humoral immune responses” (Selecta Biosciences, Inc., priority 2013, dated 2019):

Key:
HuTNFαTg [1] = test: Anti-HUMIRA antibody titers in arthritic animals (Example 14); format: in vivo; settings: HUMIRA s.c. weekly weeks 5-10; 0.87 mg nanoparticles with 60 μg Humira for first 3 injections
Experimental: Anti-HUMIRA immune and neutralizing responses in arthritic animals were evaluated. Transgenic animals overexpressing human tumor necrosis factor alpha (huTNFαTg) develop progressive rheumatoid arthritis over the course of 20 weeks from birth. This process can be prevented by using the fully human anti-human TNFα antibody Adalimumab or HUMIRA. However repetitive administration of the initial therapeutic dose of HUMIRA (60 μg) leads to anti-drug antibody formation (ADA) that neutralizes the therapeutic benefit. Higher quantities of Humira (200 μg can be injected to overcome this antagonizing immune response to allow for the therapeutic effect of Humira. Age-matched HuTNFαTg 5 week old female animals were either injected s.c. in the subscapular area with saline (PBS) or 60 μg or 200 μg of HUMIRA weekly (weeks 5-10) or with a mixture of 60 μg of Humira and 0.87 mg of tolerogenic nanoparticles (first dosings) for the first 3 injections (week 5 to 7 of age) followed by 3 weekly injections of HUMIRA alone (same amounts) (second dosings) (weeks 8 to 10 of age). The results in FIG. 11 (left panel) show the antibody titers in the blood of all animals at different time points. […] FIG. 12 illustrates the dosing regimen.

HuTNFαTg [2] = test: Arthritis scores of limbs in arthritic animals (Example 14); format: in vivo; settings: HUMIRA s.c. weekly weeks 5-10; nanocarriers with first 3 injections
Experimental: Age-matched HuTNFαTg 5 week old female animals were either injected s.c. in the subscapular area with saline (PBS) or 60 μg or 200 μg of HUMIRA weekly (weeks 5-10) or with a mixture of 60 μg of Humira and 0.87 mg of tolerogenic nanoparticles (first dosings) for the first 3 injections (week 5 to 7 of age) followed by 3 weekly injections of HUMIRA alone (same amounts) (second dosings) (weeks 8 to 10 of age). The results in FIG. 11 (left panel) show the antibody titers in the blood of all animals at different time points. […] FIG. 12 illustrates the dosing regimen.

huTNFaTg [3] = test: Arthritis scores of limbs in arthritic animals (Example 9); format: in vivo, mice; settings: 60 μg HUMIRA s.c. weekly, weeks 5 to 15 of age; 0.87 mg nanocarriers with first 7 injections
Experimental: (§1) Transgenic animals overexpressing human tumor necrosis factor alpha (huTNFaTg) develop progressive rheumatoid arthritis over the course of 20 weeks from birth. This process can be prevented by using the fully human anti-human TNFα antibody HUMIRA/adalimumab. However, repetitive administration of the initial therapeutic dose of HUMIRA (60 μg) leads to anti-drug antibody formation (ADA) that neutralizes the therapeutic benefit. Only very high doses can then maintain the therapeutic benefit and surmount the neutralizing immune response. For example, it is thought that about 200 μg is needed to effect maximal inhibition of inflammation in an example of such a mouse model (Binder et al., Arthritis & Rheumatism, Vol. 65 (No. 3), March 2013, pp. 608-617).
(§2) The results in FIG. 9A show the antibody titers in the blood of all animals at day 21.

huTNFaTg [4] = settings: such a mouse model; Binder et al. 2013; cited from earlier work
huTNFaTg [5] = test: Anti-HUMIRA antibody titers in arthritic animals (Example 9); format: in vivo, mice; settings: 60 μg HUMIRA s.c. weekly; 0.87 mg nanocarriers with first 7 injections; FIG. 9A day 21
Experimental: as §1, §2

C57BL/6 [6] = test: Anti-HUMIRA antibody titers in blood; format: in vivo, mice; settings: day 21; 60 μg HUMIRA s.c. weekly; 0.9 mg nanocarrier admixed on day 0 only
Experimental: Control C57BL/6 age-matched (5-6 weeks) females were injected subcutaneously (s.c.) in the front limbs with 60 μg of HUMIRA once a week until day 29 (on d0, 7, 14, 22, 29, across all groups and conditions). […] The results presented in FIG. 3A show the antibody titers in the blood of all animals at day 21. […] At day 29, the animals received another challenge in one hind limb (a further second dosing) while the other hind limb received saline in order to test the local antibody-mediated type I hypersensitivity response. For this, the thickness of the hind limbs were measured with the help of a caliper one hour after the injection.

C57BL/6 [7] = test: Anti-KRYSTEXXA IgM antibody titers; format: in vivo, mice; settings: 0.9 mg nanocarriers + 40 μg KRYSTEXXA i.v. days −21 and −14; then 100 μg KRYSTEXXA + 20 μg CpG s.c. day 0 to 28
Experimental: All animals received weekly injections from day 0 to day 28 of 100 μg of KRYSTEXXA combined with 20 μg of CpG s.c. in the hind limb (d0, 7, 12, 28).

C57BL/6 [8] = test: Anti-OVA and anti-KLH IgG antibody titers (Example 7); format: in vivo, mice; settings: day 54; pOVA 2.5 μg i.v. weekly; 0.2 mg nanocarriers admixed days 0, 7, 14
Experimental: The control group of C57BL/6 age-matched (5-6 weeks) female were injected i.v. in the tail vein with 2.5 μg of an immunogenic form of particulate Ovalbumin (pOVA) and 2 μg of Keyhole Limpet Hemocyanin (KLH) s.c. in the hind limb once a week for 49 days (d0, 7, 14, 20, 28, 35, 42, 49).

## adalimumab [HUMIRA]
HuTNFαTg [1]
  anti-HUMIRA antibody titers: robust anti-HUMIRA antibody response
HuTNFαTg [2]
  arthritis scores (disease progression): significant blockade of the disease progression
huTNFaTg [3]
  arthritis scores (disease progression): significant blockade of the disease progression
huTNFaTg [4]
  dose needed to effect maximal inhibition of inflammation: about 200 μg
huTNFaTg [5]
  anti-HUMIRA antibody titers: robust antibody response
C57BL/6 [6]
  anti-HUMIRA antibody titers: robust antibody response against HUMIRA

## pegloticase [KRYSTEXXA]
C57BL/6 [7]
  anti-KRYSTEXXA IgM antibody titers: develop an immune response against KRYSTEXXA

B1: pOVA: immunogenic form of particulate Ovalbumin (protein, UniProt P01012 2-386, looked up)
Ovalbumin: GSIGAASMEFCFDVFKELKVHHANENIFYCPIAIMSALAMVYLGAKDSTRTQINKVVRFDKLPGFGDSIEAQCGTSVNVHSSLRDILNQITKPNDVYSFSLASRLYAEERYPILPEYLQCVKELYRGGLEPINFQTAADQARELINSWVESQTNGIIRNVLQPSSVDSQTAMVLVNAIVFKGLWEKAFKDEDTQAMPFRVTEQESKPVQMMYQIGLFRVASMASEKMKILELPFASGTMSMLVLLPDEVSGLEQLESIINFEKLTEWTSSNVMEERKIKVYLPRMKMEEKYNLTSVLMAMGITDVFSSSANLSGISSAESLKISQAVHAAHAEINEAGREVVGSAEAGVDAASVSEEFRADHPFLFCIKHIATNAVLFFGRCVSP
modifications: particulate form
notes: immunogenic form of particulate Ovalbumin
C57BL/6 [8]
  anti-OVA IgG antibody titers: robust immune response against OVA and KLH
